Data set [1] deals with African green monkey kidney cells (Vero-E6 cells). Put plainly: Toxicity to African green monkey kidney cells (Vero-E6), CCK-8, 48 hours. As to conditions: Vero-E6 cells; for TC0 (maximum non-toxic concentration): 48 hours, CCK-8. From the text:
(§1) • (1) Medicaments: experimental group, tannic acid; control group, Remdesivir (purchased from Shanghai TopScience Technology Co., Ltd.); • (2) Cell line: African green monkey kidney cells (Vero-E6 cells); • (3) Others: MEM medium; 96-well culture plate. 2. […] 3. Experimental results
(§2) • (1) Medicaments: in the experimental group, tannic acid was mixed with catechin, resveratrol, and zinc gluconate according to a mass ratio of 1:1 to prepare into three pharmaceutical compositions; in the control group, Remdesivir (purchased from Shanghai TopScience Technology Co., Ltd.); • (2) Other experimental materials were the same as those in Embodiment 1. 2. Experimental steps: refer to Embodiment 1. 3. Experimental results

Experiment in data set [2]: as above
The following applies: African green monkey.
Description: as §1, §2

The test system of data set [3] is SARS-CoV-2 virus. The following applies: SARS-CoV-2, Vero-E6 cells; […].
Data set [4] deals with SARS-CoV-2 virus. Description: microbe, parasite or virus in culture.
The test system of the next data set is Influenza A H1N1 virus. Put plainly: microbe, parasite or virus in culture. The following applies: H1N1, MDCK.
Another data set is described as follows: in vitro. The following applies: dog. The protocol: (§3) 2. […] The maximum non-toxic concentration (TC0) of the medicament was taken as the minimum dilution times of the medicament without cytopathic changes, and the median toxic concentration (TC50) of the medicament was calculated by the Reed-Muench formula. 3. Experimental results
(§4) • (1) Medicaments: same as Embodiment 5; • (2) Other experimental materials were the same as those in Embodiment 3. 2. Experimental procedure: refer to Embodiment 3. 3. Experimental results

For data set [5], the system named is canine kidney epithelial cells (MDCK cells). Put plainly: Toxicity to canine kidney epithelial cells (MDCK), cytopathic changes. As to conditions: MDCK cells, cytopathic changes. The protocol:
as §3, §4

Where [6] appears, read: Severe acute respiratory syndrome coronavirus 2, Vero C1008, 48 h, read-out: IC50 (median inhibitory concentration).

This note sets out measurements from patent US12064444B2, “Application of tannic acid in preparation of medicament against respiratory viruses” (priority 2020, dated 2024).

Like-named read-outs stand apart in the source and are kept apart here.

In the case of `CCC(CC)COC(=O)[C@H](C)N[P@](=O)(OC[C@H]1O[C@@](C#N)(c2ccc3c(N)ncnn23)[C@H](O)[C@@H]1O)Oc1ccccc1` [Remdesivir], the “TC0 (maximum non-toxic concentration)” value in data set [1] was 52.8 µM. Besides, in data set [1] (compositions, mass ratio 1:1), the TC0 was determined as 31.816 µg/mL and the TC50 came out at 63.633 µg/mL. Moreover, in data set [2], the CC50 at 48 h is 106 µM. This compound also showed an SI in the data set on SARS-CoV-2 virus [3] of 162.21. The compound also showed an IC50 with SARS-CoV-2 virus [4] (Severe acute respiratory syndrome coronavirus 2, Vero C1008) of 0.392 ± 0.003 µg/mL. Further, the IC50 in the data set on SARS-CoV-2 virus [4] (setting [6]) came to 0.651 ± 0.013 µM.
`NC(=O)c1ncn([C@@H]2O[C@H](CO)[C@@H](O)[C@H]2O)n1` [Ribavirin]: the IC50 in the data set with Influenza A H1N1 virus (48 h, read-out: IC50 (median inhibitory concentration)) stood at 22.6 ± 0.04 µM; in the data set with Influenza A H1N1 virus (Influenza A H1N1, MDCK cells, compositions, mass ratio 1:1), 5.52 ± 0.03 µg/mL. The compound further displayed a CC50 in the data set “in vitro” of 1310 µM.
`O=C(OC[C@H]1O[C@@H](OC(=O)c2cc(O)c(O)c(OC(=O)c3cc(O)c(O)c(O)c3)c2)[C@H](OC(=O)c2cc(O)c(O)c(OC(=O)c3cc(O)c(O)c(O)c3)c2)[C@@H](OC(=O)c2cc(O)c(O)c(OC(=O)c3cc(O)c(O)c(O)c3)c2)[C@@H]1OC(=O)c1cc(O)c(O)c(OC(=O)c2cc(O)c(O)c(O)c2)c1)c1cc(O)c(O)c(OC(=O)c2cc(O)c(O)c(O)c2)c1` [Tannic acid, tannic acid]: the entries for the “TC0 (maximum non-toxic concentration)” value in data set [5] and in data set [1] were 376.21 µM and 11.8 µM, respectively. The compound further came in with a CC50 in “in vitro” of 752 µM. Besides, the CC50 at 48 h in data set [2] amounted to 23.5 µM. The IC50 in the data set on SARS-CoV-2 virus [4] (setting [6]) amounted to 0.0032 µM.
